92 compounds from the supplement of paper PMC7801607 can be followed below.

pIC50: −log10 of the molar value.

The subject of this experiment is Plasmodium falciparum Dd2 asexual blood stage.
As a reminder, the pIC50 is the negative decadic logarithm of the IC50, by convention in mol/L. The low end stands for a high IC50, the high end for a low IC50. The compound `C[C@H](Cn1cnc2c(N)ncnc21)OCP(=O)(O)O` had a pIC50 of under 5.30.
The result for `Cc1cc(C2CCCCC2)n(O)c(=O)c1` reads 5.32.
For the compound `CCCCCCCc1[nH]c2ccccc2c(=O)c1O`, the pIC50 was 5.31.
To `O=S(=O)(Nc1cccc2cccnc12)c1ccccc1` belongs under 5.30.
The compound `CN(C(=O)C1(c2ccc(Cl)cc2)CCC1)c1ccccc1` showed a pIC50 of under 5.30.
The result for `CC1(C)C[C@H]1C(=O)N/C(=C\CCCCSC[C@@H](N)C(=O)O)C(=O)O` reads under 5.30; that for `O=C(CCCC(F)(F)F)N1CCC(c2nc(-c3nccs3)no2)CC1`, under 5.30; that for `Cc1[nH]c2ccccc2c1CC(=O)N[C@@H](Cc1ccccc1)C(=O)N(C)c1ccccc1`, under 5.30.
`CCCNc1ccc(S(=O)(=O)Nc2cc(C)on2)cc1` gave a pIC50 of under 5.30.
`CC(C)Oc1cccc(NC(=O)c2ccccc2C(F)(F)F)c1` had a pIC50 of under 5.30.
The result for `CC(=O)Oc1ccccc1C(=O)Nc1ncc([N+](=O)[O-])s1` reads under 5.30.
To `COc1cc(C2C3=C(CC(C)(C)CC3=O)Nc3ccccc3N2C(C)=O)ccc1OCc1ccccc1` (configuration not stated) belongs under 5.30; to `Cc1cc(O)c2c(c1)C(=O)c1c(I)c(O)c(I)c(O)c1C2=O`, under 5.30.
`O=c1[nH]c(=O)n(Cc2cccc(Oc3ccccc3)c2)cc1Nc1ccccc1` had a pIC50 of under 5.30.
The result for `CCOc1ccc(/C=N/NC(=O)C2CC2c2ccc(C(C)(C)C)cc2)cc1OCC` (configuration not stated) reads under 5.30; that for `CCOC(=O)N[C@@H]1CC[C@@H]2[C@@H](C1)C[C@H]1C(=O)O[C@H](C)[C@H]1[C@H]2/C=C/c1ccc(-c2cccc(F)c2)cn1`, under 5.30.
To `c1cnc(NCc2ccc(CNc3ncccn3)cc2)nc1` belongs under 5.30.
With `COC(=O)Nc1nc2cc(S(=O)c3ccccc3)ccc2[nH]1` (configuration not stated), the pIC50 was under 5.30.
`Nc1ccc2oc(=O)ccc2c1I` showed a pIC50 of under 5.30.
The result for `Nc1nc(NC2Cc3ccc(F)cc3C2)nc(N2CCCCC2)n1` (configuration not stated) reads under 5.30; that for `C[C@@H](O)[C@H](N)C(=O)NS(=O)(=O)c1cccc(-c2ccc3[nH]ncc3c2)c1`, under 5.30.
The compound `O=C(/C=C/n1cnc(-c2cc(C(F)(F)F)cc(C(F)(F)F)c2)n1)NNc1cnccn1` had a pIC50 of under 5.30.
Turning to `c1ccc(-c2nnc3c4ccccc4c(N4CCNCC4)nn23)cc1`, the pIC50 was under 5.30.
To `O=C1c2cccc3cccc(c23)C(=O)N1CC1CO1` (configuration not stated) belongs 5.37; to `N=C(N)c1ccc(COc2ccc(Cl)cc2)cc1`, under 5.30.
To `C[C@H](NC(=O)C(=O)Nc1ccccc1C(C)(C)C)C(=O)N[C@@H](CC(=O)O)C(=O)COc1c(F)c(F)cc(F)c1F` belongs under 5.30; to `CO[C@@]1(NC(=O)Cc2cccs2)C(=O)N2C(C(=O)O)=C(COC(N)=O)CS[C@@H]21`, under 5.30.
To `CC(C)CCN1C(=O)C(C2=NS(=O)(=O)c3cc(NS(C)(=O)=O)ccc3N2)=C(O)[C@@H]2[C@H]3CC[C@H](C3)[C@@H]21` belongs under 5.30; to `O=C(Cn1cnc2ccccc2c1=O)Nc1ccccc1`, under 5.30.
`NC(=O)c1c(N)sc2c1CCCCC2` had a pIC50 of under 5.30.
To `[N-]=[N+]=N[C@H]1C[C@H](n2ccc(=O)[nH]c2=O)O[C@@H]1CO` belongs under 5.30; to `c1cc(CN2CCCNCCNCCCNCC2)ccc1CN1CCCNCCNCCCNCC1`, under 5.30.
With `O=C(O)c1cc(-c2ccc(Br)cc2)nc2ccc(Cl)cc12`, the pIC50 was under 5.30.
For `CN(Cc1ccc(C(C)(C)C)cc1)Cc1cccc2ccccc12`, the pIC50 was under 5.30.
`Oc1ccc2[nH]c(-c3ccccc3)nc2c1` had a pIC50 of under 5.30.
Consider `CN(C)c1[nH]c(=O)ncc1F`, for which the pIC50 is under 5.30.
To `O=c1cc(OCc2ccccc2)ccn1Cc1ccccc1` belongs under 5.30; to `O=S(=O)(Nc1ccccc1)c1ccc(NC(=S)Nc2ccccc2)cc1`, under 5.30.
To `CC(=O)N1CCN(c2ccc(OCC3COC(Cn4ccnc4)(c4ccc(Cl)cc4Cl)O3)cc2)CC1` (configuration not stated) belongs under 5.30.
With `NNC(=O)c1ccncc1`, the pIC50 is under 5.30.
In turn, `CCc1c(OCC2CCC2)c2cc(F)ccc2[nH]c1=O` gave a pIC50 of under 5.30.
The result for `CCNC(=O)Nc1cc2c(-c3ccnc(C)c3)ccc(CNC(=O)OC)c2cn1` reads under 5.30; that for `CC(C)(C)c1ccc(C(=O)NC(=O)N2CCCc3ccccc32)cc1`, under 5.30.
To `CC(=O)O[C@H]1C[C@@]2(C)[C@@H](C[C@@H](O)[C@H]3[C@@]4(C)CC[C@@H](O)[C@@H](C)[C@@H]4CC[C@@]32C)/C1=C(\CCC=C(C)C)C(=O)O` belongs under 5.30.
`Fc1ccc(-n2cc(Cn3c(-c4cccc(F)c4)nc4ccccc43)nn2)cc1` gave a pIC50 of under 5.30.
The result for `CS(=O)(=O)c1ccc(Oc2ccc(Cl)cc2)cc1` reads under 5.30; that for `CC[C@@H]1C(=O)OC[C@@H]1Cc1cncn1C`, under 5.30.
The result for `O=C(O)[C@H]1C2CCC(CC2)[C@@H]1Nc1nc(-c2c[nH]c3ncc(F)cc23)ncc1F` reads under 5.30; that for `Cc1cc(C)n2nc(C(=O)NS(=O)(=O)c3c(C)cccc3OC(F)(F)F)nc2n1`, under 5.30.
To `N#C/C(=C1/SC[C@H](c2ccc(Cl)cc2Cl)S1)n1ccnc1` belongs under 5.30; to `CC1(C)Cc2c(C#N)c(SCCc3ccccc3)nc(N3CCOCC3)c2CO1`, under 5.30.
With `CCc1cc(CCC(=O)Nc2ccccc2O)c(=O)[nH]c1C`, the pIC50 is under 5.30.
Take `OB1OCc2cc(Cl)ccc21`: the pIC50 was under 5.30.
The result for `CN(O)C(=O)c1cc2c(CN3CCC[C@H]3C(N)=O)cn(Cc3ccc(F)cc3)c2cn1` reads under 5.30.
In turn, `CCc1cc(CCCOc2c(C)cc(-c3noc(C(F)(F)F)n3)cc2C)on1` showed a pIC50 of under 5.30.
`O=C1[C@H](CC[C@H](O)c2ccc(F)cc2)[C@@H](c2ccc(O)cc2)N1c1ccc(F)cc1` showed a pIC50 of under 5.30.
In turn, `O=C(O)C(Cc1c[nH]c2ccccc12)N1C(=O)c2ccccc2C1=O` (configuration not stated) had a pIC50 of under 5.30.
`COc1ccc(NC(=O)c2cc3ccccn3n2)cc1` gave a pIC50 of under 5.30.
The result for `Cc1cccc(CC(=O)N[C@H]2CCOC2=O)c1` reads under 5.30; that for `CNc1nc(=O)[nH]cc1F`, under 5.30; that for `Nc1nc(=O)c(Br)c(-c2cccc(Cl)c2)[nH]1`, under 5.30.
The result for `COc1cc(C(C)(C)CCCC(C)C)cc(OC)c1OC` reads under 5.30; that for `O=C(N[C@H](CCS)C(=O)N[C@H](Cc1ccccc1)C(=O)O)c1cc2ccccc2[nH]1`, under 5.30; that for `O=C(O)c1cc(-c2ccccc2)nc2ccccc12`, under 5.30.
`O=P(O)(O)C(CCCc1cccc(Oc2ccccc2)c1)S(=O)(=O)O` (configuration not stated) showed a pIC50 of under 5.30.
The result for `COc1ccc(NS(=O)(=O)c2ccc(Cl)s2)cn1` reads under 5.30; that for `CCCCCCCCC(CP(=O)(O)C(C)N)C(=O)O` (configuration not stated), under 5.30; that for `CCOC(=O)N1CCN(c2ccc(Cl)cc2)CC1`, under 5.30.
The compound `COc1cccc(N2CCN(C3=Nc4c(F)cccc4[C@H](CC(=O)O)N3c3cc(C(F)(F)F)ccc3OC)CC2)c1` had a pIC50 of under 5.30.
The result for `COc1c(NC(=O)[C@H]2CC[C@@H](COc3ccc([N+](=O)[O-])cc3)CC2)c(F)cc2c(=O)c(C(=O)O)cn(C3CC3)c12` reads under 5.30.
On to `Cc1cc(Nc2ccc(F)cc2)nc(SCc2nc3ccccc3[nH]2)n1`, for which the pIC50 is under 5.30.
`CCN(CC)S(=O)(=O)c1ccc(Cl)c(C(=O)Nc2sc3c(c2C#N)CCCC3)c1` had a pIC50 of under 5.30.
In the case of `CC1(C)CC(NC(=O)C(=O)Nc2ccc(Cl)cc2)CC(C)(C)N1`, the negative-log IC50 (pIC50) is under 5.30.
To `CSc1ccc2c(c1)C(N1CCN(C)CC1)Cc1ccccc1S2` (configuration not stated) belongs under 5.30; to `COc1cc(Cc2cnc(N)nc2N)cc(OC)c1OC`, under 5.30.
The compound `NC(=O)c1cnc2ccc(S(=O)(=O)c3ccccc3)cc2c1Nc1ccc(O)cc1` showed a pIC50 of under 5.30.
`Nc1nc(N)c2c(Sc3ccccc3)cccc2n1` showed a pIC50 of under 5.30.
The compound `NC1(C(=O)O)CCP(=O)(O)CC1` (configuration not stated) gave a pIC50 of under 5.30.
To `O=C(O)c1sccc1S(=O)(=O)n1ccc2cc(Br)ccc21` belongs under 5.30.
In the case of `CC(C)N(c1cc(-c2ccccc2)sc1C(=O)O)C(=O)[C@H]1CC[C@H](C)CC1`, the pIC50 is under 5.30.
The result for `C[C@H]1CC[C@]2(NC1)O[C@H]1C[C@H]3[C@@H]4CC[C@H]5C[C@@H](O)CC[C@]5(C)[C@H]4CC[C@]3(C)[C@H]1[C@@H]2C` reads under 5.30; that for `CC(C)c1cc2c(cc1S(=O)(=O)O)[C@@]1(C)CCC[C@@](C)(C(=O)O)[C@@H]1CC2`, under 5.30; that for `COc1ccc(C2CNC(=O)C2)cc1OC1CCCC1` (configuration not stated), under 5.30.
For the compound `Nc1cccc(-c2nc(N)nc(NC3Cc4ccccc4C3)n2)c1`, the pIC50 is under 5.30.
The result for `CO/N=C(\C(=O)N[C@@H]1C(=O)N2C(C(=O)OCOC(=O)C(C)(C)C)=C(/C=C\c3scnc3C)CS[C@H]12)c1csc(N)n1` reads under 5.30; that for `CCc1ccc(C2CC(C(F)(F)F)n3ncc(C(=O)NCc4ccc(OC)cc4)c3N2)cc1` (configuration not stated), under 5.30; that for `Nc1nnnn1CCOc1c2[nH]c3ccc(Cl)cc3c2cc2c1[nH]c1ccc(Cl)cc12`, under 5.30.
To `c1ccc(Cn2c(-c3ccccn3)nc3ccccc32)cc1` belongs under 5.30.
`O=C(NCc1ncc(C(F)(F)F)cc1Cl)c1c(Cl)cccc1Cl` gave a pIC50 of under 5.30.
In the case of `Cc1cc(CCOc2c(C)cc(-c3nnn(C)n3)cc2C)on1`, the pIC50 was under 5.30.
With `C=C(C)n1c(=O)n(Cc2ccccc2C)c2ccccc21`, the pIC50 was under 5.30.
To `C=C(C)[C@@H]1CC[C@]2(C(=O)O)CC[C@]3(C)[C@H](CC[C@@H]4[C@@]5(C)CC[C@H](O)C(C)(C)[C@@H]5CC[C@]43C)[C@@H]12` belongs under 5.30.
